According to a melting point compilation (Tetko et al.; mined from patent text by program, amines drawn as free bases though some values may be those of a salt):

Structure (SMILES)	melting point [°C]
Cc1cc(SCc2cc(-c3ccc(Cl)cc3)on2)ccc1OCC(=O)O	79 to 80
CC(C)CC(C(=O)O)c1ccc(-c2ccc(C(F)(F)F)cc2)c(OCC2CC2)c1 (centres undefined)	142 to 143
N#Cc1cnc2cc(/C=C/c3ccncc3)ccc2c1Nc1ccc(Cl)cc1Cl	240 to 242
O=c1[nH]cnc2cc(C(c3ccccc3)n3ccnc3)ccc12 (centres undefined)	205
CC(C)(C)c1ccc(C(O)CCCN2CCC(=C3c4ccccc4C=Cc4ccccc43)CC2)cc1 (centres undefined)	141 to 142
CC1=N/C(=C\c2c[nH]c3ncccc23)C(=O)N1Cc1ccccc1	274 to 275
CCn1ncc2c1ncc1c(=O)n(CCN3CCOCC3)c3cc(C)nn3c12	140 to 141
CN(C)Cc1cc(C(C)(C)C)cc(C(C)(C)C)c1O	54 to 56
C#CCOc1cc(Oc2ccc(Cl)cc2Cl)ncn1	107
O=C1CN2C(=O)CCC2N1 (centres undefined)	155 to 157
C#CCOC(=O)[C@H](Cc1c[nH]cn1)NC(=O)C(Cc1cccc2ccccc12)Cc1cccc2ccccc12	187 to 189
O=c1[nH]c(-c2ccc(F)cc2)c(CCCl)s1	138
CC1(C(=O)C(CC2CCCCC2)n2cncn2)COCOC1 (centres undefined)	68 to 71
CC1Cc2cc(O)ccc2C2C(F)CC3(C)CC(O)CC3C12 (centres undefined)	239 to 240
NC(=O)c1nc2cnc3ccccc3c2[nH]1	326 to 328
O=C(NCCN1CC=C(n2c(=O)[nH]c3ccccc32)CC1)c1ccc(F)cc1	203
CCCCOc1ccc(C#CC2(O)CN3CCC2CC3)cn1 (centres undefined)	149 to 151
O=C1c2c(F)cc(F)c(F)c2C(=O)N1c1ccccc1	183 to 185
CC(C)(C)c1cc(Nc2cccc(Cl)c2)cc(C(C)(C)C)c1O	110 to 111
CC(=O)NC1=CC(C)(C)Oc2cc3nonc3cc21	218 to 220
O=C(OC1c2ccccc2C(=O)N1c1ccc2ccc(Cl)nc2n1)N1CCN(C(=O)C2CCCCC2)CC1 (centres undefined)	240

Structure (SMILES)	melting point [°C]
Oc1ccc(-c2nc(-c3ccc(Cl)cc3)nc(-c3ccc(O)cc3O)n2)c(O)c1	232 to 234
O=C(O)CCc1cn(Cc2ccc(OCc3ccc(-c4ccccc4)nc3)cc2)cc1-c1ccccc1	185 to 186
O=c1[nH]c(=O)n(C2CC(O)C(CO)O2)cc1C=CBr (centres undefined)	165 to 166
CN1C(=O)CC[C@]2(C)c3ccc(-c4ccc5ccccc5c4)cc3CC[C@@H]12	221 to 223
CCC(CC)OCc1c(-c2ccc(OC(F)F)c(OC3CC3)c2)[nH]c2cn[nH]c(=O)c12	133 to 162
CC(=O)c1ccc(NC(=O)N2CCN(c3ncnc4c(Cl)cccc34)CC2)cc1	208 to 209
CCOC(=O)c1cnc2sc3c(n12)CCCC3	75 to 76
COC(=O)[C@H]1OC(O)[C@H](OC(=O)C(C)C)[C@@H](OC(=O)C(C)C)[C@@H]1OC(=O)C(C)C (some centres undefined)	89
O=C(NC(O)C(F)(F)F)c1snc(Cl)c1Cl (centres undefined)	90 to 93
Oc1ccccc1-c1cc(-c2ccc(F)c(F)c2)cc(-c2ccc(Cl)cc2)n1	146 to 148
CS(=O)(=O)c1ccc(C(=O)C(=O)c2ccc(F)cc2)cc1	174 to 175
Cn1cc2cc3ncc(-c4ccc(Cl)s4)nc3cc2n1	222 to 224
CCOc1nc(NCc2ccco2)nc(Nc2ccc3nc(C)[nH]c3c2)n1	150 to 152
O=c1nc(-c2cccc(Cl)c2)c2cc(C(c3ccc(Cl)cc3)n3ccnc3)ccc2n1Cc1ccncc1 (centres undefined)	61.4
Cc1c(Cl)sc2[nH]c(=O)c(-c3ccccc3)c(O)c12	105 to 107
CC(C)(C(=O)NCCC#N)c1ccc(C(=O)Nc2cn3cc(Cl)ccc3n2)cc1	208 to 209
CC(C)(C)c1cc(CCc2ccccc2NC(=O)NCc2cccnc2)cc(C(C)(C)C)c1O	163 to 164
O=C(NC1CCC(CCN2CCN(c3nccc4c3CCO4)CC2)CC1)C(O)C(F)(F)F (racemic)	204
CS(=O)(=O)c1ccc(-n2nc(CNC(=O)Nc3cccc(C(F)(F)F)c3)cc2-c2ccccc2)cc1	108 to 113
CC(=O)NC[C@H]1CN(c2ccc(N3CCC4(CCOCCO4)CC3)c(F)c2)C(=O)O1	182 to 184
Cc1cc(SC(C)C)c(NC(=O)CCCCCSc2nc3ccccc3o2)c(SC(C)C)n1	98 to 100

Structure (SMILES)	melting point [°C]
CCOC(=O)c1ncn2c1[C@@H]1CCN1C(=O)c1c-2ccc(F)c1Cl	161 to 163
O=C(NCCO)c1cccc(-c2cccc3cc(Cc4cc(F)cc(Cl)c4)sc23)n1	139 to 140
O=C(Nc1cccc(Cl)c1)ONC1=Nc2ccc(Cl)cc2C(c2ccccc2)=NC1	158 to 159
O=C1CNC(=O)N1C1CCNCC1	214 to 217
CNC1CN(CCO)CCN1c1ncc(SC)c(Cl)n1 (centres undefined)	120 to 122
CCCCCCCc1c(C(C)C)nc(C(C)C)c(CO)c1-c1ccc(F)cc1	73 to 75
Oc1ccc2c(c1)Nc1ccccc1S2	207 to 208
CC(NCC(O)CP(=O)(O)CC1CCCCC1)c1ccc(Cl)c(Cl)c1 (centres undefined)	173 to 178
CC(C)(C)c1cc(C(=O)c2cccs2)cc(CN2CCCCC2)c1O	132 to 133
CSc1cc(C)nc(SC)c1NC(=O)CCN1CCN(CCSc2nc3ccccc3o2)CC1	110 to 112
N#Cc1cnc2c(c1)N(Cc1cc(Cl)ccc1Cl)CCN2	221 to 222
Cc1cc(-c2cc3ncccc3c(=O)[nH]2)cc(C)c1O	> 350
O=C(CN1C(=O)C(c2ccccc2)c2ccccc21)N1CCOCC1 (centres undefined)	153 to 154
COC(=O)c1ccc(CC(C)NCC(O)c2cccc(C(F)(F)F)c2)cc1 (centres undefined)	73 to 88
CCC(=O)NCCC1CCc2cc(Br)c3c(c21)CC(C)(C)O3 (centres undefined)	98 to 101
CCCC12CCC3=C(CCc4cc(O)ccc43)C1=CCC2=O (centres undefined)	149 to 155
O=C(CC(F)=C(F)F)NNC(=O)CC(F)=C(F)F	191 to 193
CCCC(O)(C(=O)Nc1cc(Br)nc(OC)c1)C(C)C (centres undefined)	116
O=C1CCOc2ccc(-c3ccccc3)cc21	74 to 75
Cc1nnc2n1-c1ccc(C#CCN3C(=O)C4CC=CCC4C3=O)cc1C(c1ccccc1F)=NC2 (centres undefined)	259 to 261

Other lines, results leading:

melting point [°C]	Structure (SMILES)
105 to 106	CC(=O)Oc1cc(OC(C)=O)cc(OC(C)=O)c1
141 to 143	NC(=O)Nc1cccc(OCCCCl)c1
181 to 182	CC(C)n1cc(C#N)c(-c2ccc([N+](=O)[O-])o2)n1
166 to 168	COc1cc(C=CC(=O)c2ccccc2)cc(C(F)(F)F)c1O
144	Cc1cccc(NC(=O)NC2N=C(C3CC3)c3cccc(C)c3N(CC(=O)C3CCCCC3)C2=O)c1 (centres undefined)
199 to 200	CC(NC(=O)c1ccc([N+](=O)[O-])cc1)C(=O)O (centres undefined)
103 to 106	Cc1c(Cl)cccc1S(=O)(=O)Nc1nc(CC(=O)N2CCSCC2)cs1
199 to 201	CC(=O)Nn1cc(C)n(C)c1=O
246	CC(C)C(c1ccc2ncc(=O)[nH]c2c1)n1ccnc1 (centres undefined)
144 to 145	Cc1c(C(=O)NC(C)(C)CO)cccc1[N+](=O)[O-]
114 to 116	CCOC(=O)c1nccc(C#N)c1N
30 to 32	CCCOC(=O)Cc1ccc2c(c1)C(=O)c1ccccc1CO2
206 to 207	CC(C)(Oc1ccc(NC(=O)c2cc(Cl)cc(Cl)c2)cc1)C(=O)O
85 to 86.5	CCOCC(O)COc1cccc2oc(-c3ccccc3)cc(=O)c12 (centres undefined)
138 to 141	CNC(=O)c1ccccc1CCc1ccc(Br)cc1
214 to 217	CCOC(=O)c1ncc2[nH]c3ccc(-n4cccc4)cc3c2c1C
131 to 133	CCOc1cn(C)cc(-c2cccc(C(F)(F)F)c2)c1=O
191 to 194	O=C(O)COc1ccc(C(=O)C=Cc2ccccc2F)c(Cl)c1Cl
51 to 52	O=C(CCCCOc1ccccc1O)C(F)(F)F
56 to 57	COC(=O)c1cccc(=O)n1C
119 to 121	COc1cc(-n2nc(C(F)(F)F)cc2C(F)(F)F)ccc1NC(=O)c1snnc1C

melting point [°C]	Structure (SMILES)
108 to 110	CNC(=O)c1ccc(F)c(Cl)c1
112 to 120	CC(C)(C)OC(=O)NC1CCN(Cc2ccccc2)CC1
125 to 126	COc1ccc(CCNC(=O)N(C)O)cc1OCc1ccccc1
166 to 167	CCOC(=O)c1cc2c(C)ccc(OCCO)c2[nH]1
191 to 193	CC(=O)Nc1ccc(Sc2c(-c3ccc(S(C)(=O)=O)cc3)cnn(CC(F)(F)F)c2=O)cc1
99	CCc1cc2c(-c3ccccc3Cl)nc(=O)n(C)c2s1
153 to 155	Cn1c(NO)cc(=O)n(C2CCCCC2)c1=O
140 to 141	CNS(=O)(=O)c1ccc(OC)c(C(=O)NCC2CCCN2CC2=CCCCC2)c1 (centres undefined)
136 to 137	CC(C)NC(=O)c1ccc2[nH]cc(CCNC(=O)OCc3ccccc3)c2c1
> 250	Nc1cccc(C(=O)Nc2nccn(-c3ccccc3)c2=O)c1
200 to 203	NS(=O)(=O)c1cc2cc(OCC(=O)O)ccc2s1
155 to 156	CC(=O)Nc1cc(Br)c(O)c(Br)c1
74 to 76	COc1ccc(C)c2nc(Cl)c(C(C)C)cc12
145 to 147	COc1ccc2nc(COc3ccc(NC(C)=O)cc3)sc2c1
255	Cc1cc(C(=O)Nc2cc(Oc3ccc4nc(NC(=O)C5CC5)cn4n3)ccc2Cl)n(C)n1
254 to 256	CCCOc1ccc([N+](=O)[O-])cc1C1=NC(=O)C2=NC=NC2=N1
190 to 191	O=C(Oc1ccccc1)c1cc(O)c(O)c(O)c1
106 to 108	COc1ccc(C(=O)CC(O)C(=O)O)cc1OC (centres undefined)
115 to 116	CCOC(=O)c1cccc(-c2nc(-c3cc(C)sc3C)cs2)c1
64 to 65	COc1ccc([N+](=O)[O-])c(CBr)c1
183 to 185	COc1ccc(S(=O)(=O)Nc2ccccc2/C=C/c2ccncc2C)cc1
